Measured values published in US8633238B2, “Lactams and uses thereof” (Joben Bio-Medical Co., Ltd., priority 2012, dated 2014).

Experiments:
Assay type in all cases: cell-based, human
Conditions in all cases: 50 μM, 24 h
MCF-7 cells = experiment: MTT antiproliferation assay, MCF-7 cells
Experimental: (§1) Cell Lines and Culture. MCF-7, T-47D, and H184B5F5/M10 cells were cultured with 5% CO2 atmosphere at 37° C.; MDA-MB-231 cells were cultured without CO2 at 37° C. The MCF-7 cells were cultured in MEM containing 10% heat-inactivated FBS, 100 units/mL penicillin, 100 μg/mL streptomycin, and 1 mM sodium pyruvate. The T-47D cells were maintained in RPMI-1640 medium containing 10% heat inactivated FBS, 100 units/mL penicillin, and 100 μg/mL streptomycin. […]
(§2) Assay for Antiproliferation. To determine the antiproliferative effect, MCF-7, T-47D, MDA-MB-231, or H184B5F5/M10 cells were assessed using the MTT assay as previously reported (Ho, C. Y.; Kim, C, F.; Leung, K. N.; Fung, K. P.; Tse, T. F.; Chan, H.; Lau, C. B. Differential anti-tumor activity of Coriolus versicolor (Yunzhi) extract through p53- and/or Bcl-2-dependent apoptotic pathway in human breast cancer cells. Cancer Biol. Ther. 2005, 4, e11-e17). […] The absorbance at 570 nm was measured, and the viability of cells was calculated using the following equation: relative cell number (%)=(average absorbance of treated wells)×100/(average absorbance of blank vehicle wells).

MDA-MB-231 cells = experiment: MTT antiproliferation assay, MDA-MB-231 cells
Experimental: as §1, §2

T-47D cells = experiment: MTT antiproliferation assay, T-47D cells
Experimental: as §1, §2

Substance | percentage of inhibition (MCF-7 cells) | percentage of inhibition (MDA-MB-231 cells) | percentage of inhibition (T-47D cells)
coixspirolactam D [compound 1] | 30.2% | 47.4% | –
coixspirolactam E [compound 2] | – | 25.3% | 20.7%
